Reference: patent publication US4698352A, “4-oxo-1,4-dihydronicotinic acid derivatives, salts thereof, and antibacterial agents containing the same” (Toyama Chemical Co., Ltd., priority 1982, dated 1987)
In brackets after ≈: the same amount, converted by molar mass. Where two headings read alike, the source gives them in different places.

Experiments:
Experiment in all cases: Antibacterial activity (MIC), agar dilution
Format in all cases: cell-based
E. coli GN5482** = details: Escherichia coli, 20 h; E. coli GN5482, cephalospolinase-producing; 10^6 cells per ml; read-out: MIC
Source text: (§1) The amount of bacteria inoculated was 10^4 cells per plate (10^6 cells per ml).
(§2) ** Cephalospolinase-producing bacteria

Ps. aeruginosa GN918** = details: Pseudomonas aeruginosa, Ps. aeruginosa GN918, cephalospolinase-producing, 10^6 cells per ml
Source text: as §1, §2

Pro. vulgaris GN76** = details: Proteus vulgaris, 20 h; Pro. vulgaris GN76, cephalospolinase-producing; 10^6 cells per ml; read-out: MIC
Source text: as §1, §2

Pro. mirabilis T-111 = details: Proteus mirabilis, 37° C.
Source text: as §1

Kl. pneumoniae Y-41 = details: Klebsiella pneumoniae, Y41, 10^6 cells per ml, 37° C., 20 hours, read-out: MIC
Source text: as §1

Kl. pneumoniae Y-50 = details: Klebsiella pneumoniae, Y50, 20 h, 10^6 cells per ml, 37° C., read-out: MIC
Source text: as §1

Ps. aeruginosa IFO3445 = details: Pseudomonas aeruginosa
Source text: as §1

E. coli TK-111 = details: Escherichia coli, TK111, 20 h, E. coli TK-111; 10^6 cells per ml; 37° C., 20 hours; read-out: MIC
Source text: as §1

St. aureus FDA209P = details: Staphylococcus aureus, FDA209P, 20 h, St. aureus FDA209P; 10^6 cells per ml; 37° C., 20 hours; read-out: MIC
Source text: as §1

Pro. vulgaris GN3027 = details: Proteus vulgaris, GN3027, 20 h, Pro. vulgaris GN3027; 10^6 cells per ml; 37° C., 20 hours; read-out: MIC
Source text: as §1

E. coli NIHJ JC-2 = details: Escherichia coli, NIHJJC2, 20 h, E. coli NIHJ JC-2; 10^6 cells per ml; 37° C., 20 hours; read-out: MIC
Source text: as §1

Aci. antitratus A-6 = details: 20 h, Aci. antitratus A-6; 10^6 cells per ml; 37° C., 20 hours; read-out: MIC
Source text: as §1

Pro. morganii T-216 = details: Morganella morganii, 37° C.
Source text: as §1

Ps. aeruginosa S-68 = details: Pseudomonas aeruginosa
Source text: as §1

Ent. cloacae IID977 = details: Enterobacter cloacae, IID977, 20 h, Ent. cloacae IID977; 10^6 cells per ml; 37° C., 20 hours; read-out: MIC
Source text: as §1

E. coli TK-3* = details: Escherichia coli, 20 h, E. coli TK-3, penicillinase-producing; 10^6 cells per ml; read-out: MIC
Source text: as §1
(§3) * Penicillinase-producing bacteria

St. aureus F-137* = details: Staphylococcus aureus, 20 h, St. aureus F-137, penicillinase-producing; 10^6 cells per ml; read-out: MIC
Source text: as §1, §3

Kl. pneumoniae Y-4* = details: Klebsiella pneumoniae, 20 h, Kl. pneumoniae Y-4, penicillinase-producing; 10^6 cells per ml; read-out: MIC
Source text: as §1, §3

Ps. aeruginosa GN3379* = details: Pseudomonas aeruginosa, 20 h; Ps. aeruginosa GN3379, penicillinase-producing; 10^6 cells per ml; read-out: MIC
Source text: as §1, §3

[1] = T111, 10^6 cells per ml, 20 hours, read-out: MIC
[2] = T216, 10^6 cells per ml, 20 hours, read-out: MIC
[3] = Ps. aeruginosa IFO3445, 10^6 cells per ml, 37° C., 20 hours, read-out: MIC
[4] = S68, Ps. aeruginosa S-68, 10^6 cells per ml, 37° C., 20 hours, read-out: MIC

CC(=O)Oc1ccc(-n2cc(C(=O)O)c(=O)cc2-c2ccc(-c3cccs3)cc2)cc1
MIC (E. coli GN5482**): ≤ 0.05 µg/mL | MIC (Ps. aeruginosa GN918**; GN918, 20 h): 1.56 µg/mL (≈ 3.62 µM) | MIC (Pro. vulgaris GN76**): 0.39 µg/mL (≈ 0.904 µM) | MIC (Pro. mirabilis T-111; [1]): 0.39 µg/mL (≈ 0.904 µM) | MIC (Kl. pneumoniae Y-41): 0.78 µg/mL (≈ 1.81 µM) | MIC (Kl. pneumoniae Y-50): 0.39 µg/mL (≈ 0.904 µM) | MIC (Ps. aeruginosa IFO3445; IFO3445, 20 h): 1.56 µg/mL (≈ 3.62 µM) | MIC (E. coli TK-111): ≤ 0.05 µg/mL | MIC (St. aureus FDA209P): ≤ 0.05 µg/mL | MIC (Pro. vulgaris GN3027): ≤ 0.05 µg/mL | MIC (E. coli NIHJ JC-2): 0.2 µg/mL (≈ 0.464 µM) | MIC (Aci. antitratus A-6): ≤ 0.05 µg/mL | MIC (Pro. morganii T-216; [2]): 0.39 µg/mL (≈ 0.904 µM) | MIC (Ps. aeruginosa S-68; S68, 20 h): 1.56 µg/mL (≈ 3.62 µM) | MIC (Ent. cloacae IID977): 0.39 µg/mL (≈ 0.904 µM) | MIC (E. coli TK-3*): 0.39 µg/mL (≈ 0.904 µM) | MIC (St. aureus F-137*): ≤ 0.05 µg/mL | MIC (Kl. pneumoniae Y-4*): 1.56 µg/mL (≈ 3.62 µM) | MIC (Ps. aeruginosa GN3379*): 3.13 µg/mL (≈ 7.25 µM)

CC(=O)Oc1ccc(-n2cc(C(=O)O)c(=O)cc2-c2ccc(N(C)C)cc2)c(C)c1
MIC (E. coli GN5482**): ≤ 0.05 µg/mL | MIC (Ps. aeruginosa GN918**; GN918, 20 h): 1.56 µg/mL (≈ 3.84 µM) | MIC (Pro. vulgaris GN76**): 0.39 µg/mL (≈ 0.96 µM) | MIC (Pro. mirabilis T-111; [1]): 0.78 µg/mL (≈ 1.92 µM) | MIC (Kl. pneumoniae Y-41): 1.56 µg/mL (≈ 3.84 µM) | MIC (Kl. pneumoniae Y-50): 0.39 µg/mL (≈ 0.96 µM) | MIC (Ps. aeruginosa IFO3445; [3]): 6.25 µg/mL (≈ 15.4 µM) | MIC (E. coli TK-111): ≤ 0.05 µg/mL | MIC (St. aureus FDA209P): ≤ 0.05 µg/mL | MIC (Pro. vulgaris GN3027): 0.39 µg/mL (≈ 0.96 µM) | MIC (E. coli NIHJ JC-2): 0.2 µg/mL (≈ 0.492 µM) | MIC (Aci. antitratus A-6): ≤ 0.05 µg/mL | MIC (Pro. morganii T-216; T216, 20 h, 10^6 cells per ml): 1.56 µg/mL (≈ 3.84 µM) | MIC (Ps. aeruginosa S-68; [4]): 3.13 µg/mL (≈ 7.7 µM) | MIC (Ent. cloacae IID977): 0.78 µg/mL (≈ 1.92 µM) | MIC (E. coli TK-3*): 0.39 µg/mL (≈ 0.96 µM) | MIC (St. aureus F-137*): ≤ 0.05 µg/mL | MIC (Kl. pneumoniae Y-4*): 1.56 µg/mL (≈ 3.84 µM) | MIC (Ps. aeruginosa GN3379*): 6.25 µg/mL (≈ 15.4 µM)

O=C(O)c1cn(-c2ccc(O)cc2)c(-c2ccc(-c3ccc(Cl)s3)cc2)cc1=O
MIC (E. coli GN5482**): ≤ 0.05 µg/mL | MIC (Ps. aeruginosa GN918**; 20 h, read-out: MIC): 0.78 µg/mL (≈ 1.84 µM) | MIC (Pro. vulgaris GN76**): 0.39 µg/mL (≈ 0.92 µM) | MIC (Pro. mirabilis T-111; T111, 20 h, 10^6 cells per ml): 1.56 µg/mL (≈ 3.68 µM) | MIC (Kl. pneumoniae Y-41): 1.56 µg/mL (≈ 3.68 µM) | MIC (Kl. pneumoniae Y-50): 0.39 µg/mL (≈ 0.92 µM) | MIC (Ps. aeruginosa IFO3445; [3]): 3.13 µg/mL (≈ 7.38 µM) | MIC (E. coli TK-111): 0.1 µg/mL (≈ 0.236 µM) | MIC (St. aureus FDA209P): ≤ 0.05 µg/mL | MIC (Pro. vulgaris GN3027): ≤ 0.1 µg/mL | MIC (E. coli NIHJ JC-2): 0.2 µg/mL (≈ 0.472 µM) | MIC (Aci. antitratus A-6): 0.1 µg/mL (≈ 0.236 µM) | MIC (Pro. morganii T-216; [2]): 0.78 µg/mL (≈ 1.84 µM) | MIC (Ps. aeruginosa S-68; [4]): 3.13 µg/mL (≈ 7.38 µM) | MIC (Ent. cloacae IID977): 0.78 µg/mL (≈ 1.84 µM) | MIC (E. coli TK-3*): 0.78 µg/mL (≈ 1.84 µM) | MIC (St. aureus F-137*): ≤ 0.05 µg/mL | MIC (Kl. pneumoniae Y-4*): 1.56 µg/mL (≈ 3.68 µM) | MIC (Ps. aeruginosa GN3379*): 3.13 µg/mL (≈ 7.38 µM)

COc1ccc(-c2ccc(-c3cc(=O)c(C(=O)O)cn3-c3ccc(O)cc3)cc2)s1
MIC (E. coli GN5482**): ≤ 0.05 µg/mL | MIC (Ps. aeruginosa GN918**; 20 h, read-out: MIC): 0.78 µg/mL (≈ 1.86 µM) | MIC (Pro. vulgaris GN76**): 0.39 µg/mL (≈ 0.93 µM) | MIC (Pro. mirabilis T-111; [1]): 0.78 µg/mL (≈ 1.86 µM) | MIC (Kl. pneumoniae Y-41): 1.56 µg/mL (≈ 3.72 µM) | MIC (Kl. pneumoniae Y-50): 0.78 µg/mL (≈ 1.86 µM) | MIC (Ps. aeruginosa IFO3445; [3]): 6.25 µg/mL (≈ 14.9 µM) | MIC (E. coli TK-111): 0.1 µg/mL (≈ 0.238 µM) | MIC (St. aureus FDA209P): ≤ 0.05 µg/mL | MIC (Pro. vulgaris GN3027): 0.2 µg/mL (≈ 0.477 µM) | MIC (E. coli NIHJ JC-2): 0.39 µg/mL (≈ 0.93 µM) | MIC (Aci. antitratus A-6): 0.1 µg/mL (≈ 0.238 µM) | MIC (Pro. morganii T-216; [2]): 0.39 µg/mL (≈ 0.93 µM) | MIC (Ps. aeruginosa S-68; [4]): 3.13 µg/mL (≈ 7.46 µM) | MIC (Ent. cloacae IID977): 0.78 µg/mL (≈ 1.86 µM) | MIC (E. coli TK-3*): 0.39 µg/mL (≈ 0.93 µM) | MIC (St. aureus F-137*): ≤ 0.05 µg/mL | MIC (Kl. pneumoniae Y-4*): 1.56 µg/mL (≈ 3.72 µM) | MIC (Ps. aeruginosa GN3379*): 3.13 µg/mL (≈ 7.46 µM)

Cc1ccc(-c2ccc(-c3cc(=O)c(C(=O)O)cn3-c3ccc(O)cc3)cc2)s1
MIC (E. coli GN5482**): ≤ 0.05 µg/mL | MIC (Ps. aeruginosa GN918**; GN918, 20 h): 1.56 µg/mL (≈ 3.87 µM) | MIC (Pro. vulgaris GN76**): 0.39 µg/mL (≈ 0.967 µM) | MIC (Pro. mirabilis T-111; [1]): 0.39 µg/mL (≈ 0.967 µM) | MIC (Kl. pneumoniae Y-41): 1.56 µg/mL (≈ 3.87 µM) | MIC (Kl. pneumoniae Y-50): 0.78 µg/mL (≈ 1.93 µM) | MIC (Ps. aeruginosa IFO3445; [3]): 6.25 µg/mL (≈ 15.5 µM) | MIC (E. coli TK-111): 0.1 µg/mL (≈ 0.248 µM) | MIC (St. aureus FDA209P): ≤ 0.05 µg/mL | MIC (Pro. vulgaris GN3027): 0.1 µg/mL (≈ 0.248 µM) | MIC (E. coli NIHJ JC-2): 0.2 µg/mL (≈ 0.496 µM) | MIC (Aci. antitratus A-6): ≤ 0.05 µg/mL | MIC (Pro. morganii T-216; [2]): 0.78 µg/mL (≈ 1.93 µM) | MIC (Ps. aeruginosa S-68; [4]): 3.13 µg/mL (≈ 7.76 µM) | MIC (Ent. cloacae IID977): 0.78 µg/mL (≈ 1.93 µM) | MIC (E. coli TK-3*): 0.39 µg/mL (≈ 0.967 µM) | MIC (St. aureus F-137*): ≤ 0.05 µg/mL | MIC (Kl. pneumoniae Y-4*): 1.56 µg/mL (≈ 3.87 µM) | MIC (Ps. aeruginosa GN3379*): 6.25 µg/mL (≈ 15.5 µM)

Cn1ccc2cc(-c3cc(=O)c(C(=O)O)cn3-c3ccc(O)cc3)ccc21
MIC (E. coli GN5482**): ≤ 0.05 µg/mL | MIC (Ps. aeruginosa GN918**; 20 h, read-out: MIC): 0.78 µg/mL (≈ 2.16 µM) | MIC (Pro. vulgaris GN76**): 0.39 µg/mL (≈ 1.08 µM) | MIC (Pro. mirabilis T-111; [1]): 0.78 µg/mL (≈ 2.16 µM) | MIC (Kl. pneumoniae Y-41): 0.78 µg/mL (≈ 2.16 µM) | MIC (Kl. pneumoniae Y-50): 0.2 µg/mL (≈ 0.555 µM) | MIC (Ps. aeruginosa IFO3445; [3]): 3.13 µg/mL (≈ 8.69 µM) | MIC (E. coli TK-111): ≤ 0.05 µg/mL | MIC (St. aureus FDA209P): ≤ 0.05 µg/mL | MIC (Pro. vulgaris GN3027): 0.1 µg/mL (≈ 0.277 µM) | MIC (E. coli NIHJ JC-2): 0.1 µg/mL (≈ 0.277 µM) | MIC (Aci. antitratus A-6): 0.1 µg/mL (≈ 0.277 µM) | MIC (Pro. morganii T-216; [2]): 0.39 µg/mL (≈ 1.08 µM) | MIC (Ps. aeruginosa S-68; [4]): 3.13 µg/mL (≈ 8.69 µM) | MIC (Ent. cloacae IID977): 0.39 µg/mL (≈ 1.08 µM) | MIC (E. coli TK-3*): 0.39 µg/mL (≈ 1.08 µM) | MIC (St. aureus F-137*): ≤ 0.05 µg/mL | MIC (Kl. pneumoniae Y-4*): 0.78 µg/mL (≈ 2.16 µM) | MIC (Ps. aeruginosa GN3379*): 3.13 µg/mL (≈ 8.69 µM)
